Results from ChEMBL document CHEMBL4507283, “Data for DCP probe BI-1935” (2021).

Columns and labels:
[1] = biological target: Serine/threonine-protein kinase 38 (Homo sapiens) (UniProt Q15208); details: Compound concentration 1000.0 nM
[2] = biological target: Activin receptor type-2A (Homo sapiens) (UniProt P27037); details: Compound concentration 1000.0 nM
[3] = biological target: Beta-adrenergic receptor kinase 1 (Homo sapiens) (UniProt P25098); details: Compound concentration 1000.0 nM
[4] = biological target: Dual specificity mitogen-activated protein kinase kinase 7 (Homo sapiens) (UniProt O14733); details: Compound concentration 1000.0 nM
[5] = biological target: Leukotriene A-4 hydrolase (Cavia porcellus) (UniProt P19602); experiment: LTA4HYD Eurofins-Panlabs selectivity data (BI); details: Compound concentration 10.0 uM
[6] = biological target: Serine/threonine-protein kinase PLK3 (Homo sapiens) (UniProt Q9H4B4); details: Compound concentration 1000.0 nM
[7] = biological target: Angiopoietin-1 receptor (Homo sapiens) (UniProt Q02763); details: Compound concentration 1000.0 nM
[8] = biological target: Serine/threonine-protein kinase D1 (Homo sapiens) (UniProt Q15139); details: Compound concentration 1000.0 nM
[9] = biological target: Cyclin-dependent kinase-like 1 (Homo sapiens) (UniProt Q00532); details: Compound concentration 1000.0 nM
[10] = biological target: Serine/threonine-protein kinase PLK2 (Homo sapiens) (UniProt Q9NYY3); details: Compound concentration 1000.0 nM
[11] = biological target: Insulin-like growth factor 1 receptor (Homo sapiens) (UniProt P08069); details: Compound concentration 1000.0 nM
[12] = biological target: Cyclin-dependent kinase-like 5 (Homo sapiens) (UniProt O76039); details: Compound concentration 1000.0 nM
[13] = tested on: Receptor-type tyrosine-protein kinase FLT3 (Homo sapiens), P36888 [UNDEFINED MUTATION]; details: Compound concentration 1000.0 nM
[14] = biological target: cGMP-dependent protein kinase 1 (Homo sapiens) (UniProt Q13976); details: Compound concentration 1000.0 nM
[15] = biological target: Cyclin-dependent kinase 2 (Homo sapiens) (UniProt P24941); details: Compound concentration 1000.0 nM
[16] = biological target: Discoidin domain-containing receptor 2 (Homo sapiens) (UniProt Q16832); details: Compound concentration 1000.0 nM
[17] = biological target: D(2) dopamine receptor (Homo sapiens) (UniProt P14416); experiment: D2L/H Eurofins-Panlabs selectivity data (BI); details: Compound concentration 10.0 uM
[18] = biological target: Cyclin-dependent kinase 11A (Homo sapiens) (UniProt Q9UQ88); details: Compound concentration 1000.0 nM
[19] = biological target: Ankyrin repeat and protein kinase domain-containing protein 1 (Homo sapiens) (UniProt Q8NFD2); details: Compound concentration 1000.0 nM
[20] = biological target: Transient receptor potential cation channel subfamily M member 6 (Homo sapiens) (UniProt Q9BX84); details: Compound concentration 1000.0 nM
[21] = biological target: Myosin-IIIb (Homo sapiens) (UniProt Q8WXR4); details: Compound concentration 1000.0 nM
[22] = biological target: Activin receptor type-2B (Homo sapiens) (UniProt Q13705); details: Compound concentration 1000.0 nM
[23] = biological target: Type-1 angiotensin II receptor (Oryctolagus cuniculus) (UniProt P34976); experiment: AT1 Eurofins-Panlabs selectivity data (BI); details: Homo sapiens; Compound concentration 10.0 uM
[24] = biological target: Ribosomal protein S6 kinase alpha-5 (Homo sapiens) (UniProt O75582); details: Compound concentration 1000.0 nM
[25] = biological target: Serine/threonine-protein kinase PAK 4 (Homo sapiens) (UniProt O96013); details: Compound concentration 1000.0 nM
[26] = biological target: Aurora kinase C (Homo sapiens) (UniProt Q9UQB9); details: Compound concentration 1000.0 nM
[27] = biological target: Ribosomal protein S6 kinase beta-1 (Homo sapiens) (UniProt P23443); details: Compound concentration 1000.0 nM
[28] = biological target: Sodium-dependent serotonin transporter (Homo sapiens) (UniProt P31645); details: Compound concentration 10.0 uM
[29] = biological target: Serine/threonine-protein kinase SIK2 (Homo sapiens) (UniProt Q9H0K1); details: Compound concentration 1000.0 nM
[30] = tested on: Receptor-type tyrosine-protein kinase FLT3 (Homo sapiens), P36888 [D835V]; details: Compound concentration 1000.0 nM
[31] = biological target: Dual specificity mitogen-activated protein kinase kinase 4 (Homo sapiens) (UniProt P45985); details: Compound concentration 1000.0 nM
[32] = tested on: Receptor-type tyrosine-protein kinase FLT3 (Homo sapiens), P36888 [D835Y]; details: Compound concentration 1000.0 nM
[33] = biological target: 5-hydroxytryptamine receptor 1E (Homo sapiens) (UniProt P28566); details: Compound concentration 10.0 uM
[34] = biological target: Casein kinase I isoform epsilon (Homo sapiens) (UniProt P49674); details: Compound concentration 1000.0 nM
[35] = biological target: Muscarinic acetylcholine receptor M2 (Homo sapiens) (UniProt P08172); details: Compound concentration 10.0 uM
[36] = biological target: Dual specificity mitogen-activated protein kinase kinase 1 (Homo sapiens) (UniProt Q02750); details: Compound concentration 1000.0 nM
[37] = biological target: Macrophage colony-stimulating factor 1 receptor (Homo sapiens) (UniProt P07333); details: Compound concentration 1000.0 nM
[38] = biological target: Ephrin type-A receptor 2 (Homo sapiens) (UniProt P29317); details: Compound concentration 1000.0 nM
[39] = biological target: Serine/threonine-protein kinase MAK (Homo sapiens) (UniProt P20794); details: Compound concentration 1000.0 nM
[40] = biological target: Fibroblast growth factor receptor 4 (Homo sapiens) (UniProt P22455); details: Compound concentration 1000.0 nM
Sequence of Fibroblast growth factor receptor 4 (Homo sapiens) (P22455 22-802 limits assumed): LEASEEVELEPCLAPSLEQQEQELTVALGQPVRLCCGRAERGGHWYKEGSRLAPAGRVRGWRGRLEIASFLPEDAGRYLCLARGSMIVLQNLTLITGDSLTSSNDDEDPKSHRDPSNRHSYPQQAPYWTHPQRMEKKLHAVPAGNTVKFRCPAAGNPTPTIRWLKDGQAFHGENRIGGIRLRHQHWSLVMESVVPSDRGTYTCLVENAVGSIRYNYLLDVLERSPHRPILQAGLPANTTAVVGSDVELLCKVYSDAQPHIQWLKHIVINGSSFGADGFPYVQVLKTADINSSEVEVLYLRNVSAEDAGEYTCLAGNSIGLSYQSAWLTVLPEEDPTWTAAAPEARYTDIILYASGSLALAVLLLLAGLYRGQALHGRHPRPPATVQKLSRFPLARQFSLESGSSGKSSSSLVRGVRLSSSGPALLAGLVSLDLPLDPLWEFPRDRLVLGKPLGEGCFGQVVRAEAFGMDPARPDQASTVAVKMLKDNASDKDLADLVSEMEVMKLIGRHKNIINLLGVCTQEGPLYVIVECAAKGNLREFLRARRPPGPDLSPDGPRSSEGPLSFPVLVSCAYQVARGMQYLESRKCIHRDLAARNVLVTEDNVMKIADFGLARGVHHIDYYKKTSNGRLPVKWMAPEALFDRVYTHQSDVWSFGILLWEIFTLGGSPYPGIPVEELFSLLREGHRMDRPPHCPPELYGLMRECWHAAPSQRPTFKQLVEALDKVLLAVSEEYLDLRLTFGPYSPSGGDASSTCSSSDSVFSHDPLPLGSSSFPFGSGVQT

Sequence of Ribosomal protein S6 kinase beta-1 (Homo sapiens) (P23443 whole entry, looked up): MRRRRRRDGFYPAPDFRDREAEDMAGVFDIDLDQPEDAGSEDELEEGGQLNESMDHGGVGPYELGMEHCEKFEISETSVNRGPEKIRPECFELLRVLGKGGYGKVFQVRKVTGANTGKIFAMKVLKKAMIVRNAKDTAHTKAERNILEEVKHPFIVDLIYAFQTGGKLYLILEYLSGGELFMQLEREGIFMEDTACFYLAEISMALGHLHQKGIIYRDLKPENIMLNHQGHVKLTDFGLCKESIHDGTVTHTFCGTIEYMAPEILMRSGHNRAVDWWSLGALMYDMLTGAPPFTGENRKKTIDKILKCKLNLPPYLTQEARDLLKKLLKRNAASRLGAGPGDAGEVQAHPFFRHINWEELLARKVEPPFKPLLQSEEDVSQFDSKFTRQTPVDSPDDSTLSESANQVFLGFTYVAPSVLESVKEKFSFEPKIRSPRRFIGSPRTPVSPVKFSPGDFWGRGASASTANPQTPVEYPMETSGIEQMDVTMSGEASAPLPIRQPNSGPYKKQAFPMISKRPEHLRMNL
Sequence of Angiopoietin-1 receptor (Homo sapiens) (Q02763 whole entry): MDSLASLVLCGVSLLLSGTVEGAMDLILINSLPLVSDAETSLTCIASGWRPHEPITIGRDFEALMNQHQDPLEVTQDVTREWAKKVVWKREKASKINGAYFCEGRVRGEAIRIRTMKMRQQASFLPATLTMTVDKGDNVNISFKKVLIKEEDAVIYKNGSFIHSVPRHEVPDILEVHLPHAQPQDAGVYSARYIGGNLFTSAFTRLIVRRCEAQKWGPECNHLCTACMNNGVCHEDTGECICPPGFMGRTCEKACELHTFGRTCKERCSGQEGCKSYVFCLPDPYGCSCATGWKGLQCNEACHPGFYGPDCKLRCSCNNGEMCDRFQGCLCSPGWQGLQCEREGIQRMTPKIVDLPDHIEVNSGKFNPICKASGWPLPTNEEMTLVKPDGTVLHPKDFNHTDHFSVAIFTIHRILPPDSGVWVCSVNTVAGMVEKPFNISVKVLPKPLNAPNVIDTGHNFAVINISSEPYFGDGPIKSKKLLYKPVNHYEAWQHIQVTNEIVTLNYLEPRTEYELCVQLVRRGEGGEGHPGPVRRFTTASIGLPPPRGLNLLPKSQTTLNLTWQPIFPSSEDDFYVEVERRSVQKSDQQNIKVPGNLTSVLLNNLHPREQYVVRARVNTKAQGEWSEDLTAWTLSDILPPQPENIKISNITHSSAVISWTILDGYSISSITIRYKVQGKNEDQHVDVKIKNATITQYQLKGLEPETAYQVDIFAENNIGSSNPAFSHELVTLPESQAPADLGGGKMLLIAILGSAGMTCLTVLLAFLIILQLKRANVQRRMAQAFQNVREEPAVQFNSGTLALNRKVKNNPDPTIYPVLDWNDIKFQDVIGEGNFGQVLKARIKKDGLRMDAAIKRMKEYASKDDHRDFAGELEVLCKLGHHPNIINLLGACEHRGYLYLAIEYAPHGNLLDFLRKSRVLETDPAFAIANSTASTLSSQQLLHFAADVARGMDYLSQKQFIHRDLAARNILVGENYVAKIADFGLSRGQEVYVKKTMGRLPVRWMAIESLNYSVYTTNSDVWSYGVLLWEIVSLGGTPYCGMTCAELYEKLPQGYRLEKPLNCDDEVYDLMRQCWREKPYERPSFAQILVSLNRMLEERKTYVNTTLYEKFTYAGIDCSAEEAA
Sequence of Serine/threonine-protein kinase 38 (Homo sapiens) (Q15208 2-465 limits assumed): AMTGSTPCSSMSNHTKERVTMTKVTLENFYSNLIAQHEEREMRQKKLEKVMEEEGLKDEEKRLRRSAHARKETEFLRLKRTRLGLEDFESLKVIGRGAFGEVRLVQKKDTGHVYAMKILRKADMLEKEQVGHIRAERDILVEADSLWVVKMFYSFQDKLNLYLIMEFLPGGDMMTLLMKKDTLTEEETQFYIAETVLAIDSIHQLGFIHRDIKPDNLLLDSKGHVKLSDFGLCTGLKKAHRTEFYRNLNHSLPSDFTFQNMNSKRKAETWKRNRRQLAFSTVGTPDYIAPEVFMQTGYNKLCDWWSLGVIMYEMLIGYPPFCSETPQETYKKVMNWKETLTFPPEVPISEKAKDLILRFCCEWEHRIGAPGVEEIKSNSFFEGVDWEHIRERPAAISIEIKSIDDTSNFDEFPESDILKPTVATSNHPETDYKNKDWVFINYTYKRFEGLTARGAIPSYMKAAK
Sequence of Activin receptor type-2A (Homo sapiens) (P27037 whole entry): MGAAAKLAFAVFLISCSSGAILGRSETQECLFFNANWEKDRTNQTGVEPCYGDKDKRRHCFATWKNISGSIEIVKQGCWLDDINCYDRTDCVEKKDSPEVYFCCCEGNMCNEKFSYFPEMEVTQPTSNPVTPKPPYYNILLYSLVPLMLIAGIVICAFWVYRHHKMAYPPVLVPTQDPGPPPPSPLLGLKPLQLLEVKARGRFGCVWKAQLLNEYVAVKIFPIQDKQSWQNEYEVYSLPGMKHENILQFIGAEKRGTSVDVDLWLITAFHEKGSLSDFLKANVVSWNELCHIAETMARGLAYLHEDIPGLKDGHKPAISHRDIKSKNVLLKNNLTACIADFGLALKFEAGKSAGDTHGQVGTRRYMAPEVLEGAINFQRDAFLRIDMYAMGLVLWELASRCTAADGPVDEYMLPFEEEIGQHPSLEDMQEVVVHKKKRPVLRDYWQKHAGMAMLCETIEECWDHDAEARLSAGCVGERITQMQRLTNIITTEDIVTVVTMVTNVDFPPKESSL
Sequence of Leukotriene A-4 hydrolase (Cavia porcellus) (P19602 whole entry): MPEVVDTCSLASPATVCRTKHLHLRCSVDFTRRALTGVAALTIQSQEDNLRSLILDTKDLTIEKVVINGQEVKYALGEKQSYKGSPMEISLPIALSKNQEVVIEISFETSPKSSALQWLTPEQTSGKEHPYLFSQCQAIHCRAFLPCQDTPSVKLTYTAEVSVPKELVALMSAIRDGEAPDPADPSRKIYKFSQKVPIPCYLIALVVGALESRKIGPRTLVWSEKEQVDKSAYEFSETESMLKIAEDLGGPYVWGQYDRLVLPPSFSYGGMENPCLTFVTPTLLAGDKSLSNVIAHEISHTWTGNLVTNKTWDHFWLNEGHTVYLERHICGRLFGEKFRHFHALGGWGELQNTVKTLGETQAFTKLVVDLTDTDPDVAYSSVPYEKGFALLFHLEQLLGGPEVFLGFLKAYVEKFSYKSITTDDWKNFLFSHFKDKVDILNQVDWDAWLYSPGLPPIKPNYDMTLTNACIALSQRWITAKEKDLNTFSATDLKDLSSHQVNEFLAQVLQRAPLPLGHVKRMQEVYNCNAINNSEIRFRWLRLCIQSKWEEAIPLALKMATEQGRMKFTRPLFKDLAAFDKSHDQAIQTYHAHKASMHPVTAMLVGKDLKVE
Sequence of Serine/threonine-protein kinase PLK2 (Homo sapiens) (Q9NYY3 whole entry, looked up): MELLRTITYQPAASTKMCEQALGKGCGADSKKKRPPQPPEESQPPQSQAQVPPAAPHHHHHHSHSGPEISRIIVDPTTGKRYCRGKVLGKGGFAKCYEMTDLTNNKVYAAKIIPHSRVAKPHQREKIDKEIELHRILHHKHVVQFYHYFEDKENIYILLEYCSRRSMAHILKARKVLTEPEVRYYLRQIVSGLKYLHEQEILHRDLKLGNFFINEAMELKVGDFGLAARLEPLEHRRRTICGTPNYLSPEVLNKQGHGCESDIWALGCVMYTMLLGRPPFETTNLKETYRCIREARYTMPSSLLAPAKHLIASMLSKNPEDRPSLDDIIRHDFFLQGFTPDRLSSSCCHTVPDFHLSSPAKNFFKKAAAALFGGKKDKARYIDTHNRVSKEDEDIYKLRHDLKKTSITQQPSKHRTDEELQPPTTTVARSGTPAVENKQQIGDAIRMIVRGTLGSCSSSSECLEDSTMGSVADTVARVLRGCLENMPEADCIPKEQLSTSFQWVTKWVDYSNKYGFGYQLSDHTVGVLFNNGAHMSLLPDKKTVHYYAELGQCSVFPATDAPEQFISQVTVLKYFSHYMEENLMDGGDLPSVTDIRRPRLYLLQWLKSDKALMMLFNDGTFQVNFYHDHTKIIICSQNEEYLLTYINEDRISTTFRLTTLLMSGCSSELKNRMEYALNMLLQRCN
Sequence of Aurora kinase C (Homo sapiens) (Q9UQB9 whole entry): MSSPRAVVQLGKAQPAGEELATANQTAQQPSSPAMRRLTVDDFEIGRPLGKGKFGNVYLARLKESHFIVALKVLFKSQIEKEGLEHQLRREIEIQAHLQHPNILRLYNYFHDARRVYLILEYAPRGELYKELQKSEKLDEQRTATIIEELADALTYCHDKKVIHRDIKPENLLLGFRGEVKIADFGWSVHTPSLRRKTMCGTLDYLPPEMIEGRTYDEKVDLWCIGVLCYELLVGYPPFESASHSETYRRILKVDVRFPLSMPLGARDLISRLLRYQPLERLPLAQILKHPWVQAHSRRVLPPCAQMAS

CCOCCn1cc(C(=O)Nc2ccc(-n3nc(-c4cccnc4)cc3C(F)(F)F)cn2)ccc1=O [BI 1935]
inactive: residual activity [1] 91% | residual activity [2] 100% | residual activity [3] 75% | residual activity [4] 85% | residual activity [5] 111% | residual activity [6] 84% | residual activity [7] 87% | residual activity [8] 100% | residual activity [9] 80% | residual activity [10] 88% | residual activity [11] 96% | residual activity [12] 90% | residual activity [13] 79% | residual activity [14] 98% | residual activity [15] 100% | residual activity [16] 100% | residual activity [17] 97% | residual activity [18] 100% | residual activity [19] 57% | residual activity [20] 73% | residual activity [21] 96% | residual activity [22] 100% | residual activity [23] 93% | residual activity [24] 100% | residual activity [25] 100% | residual activity [26] 88% | residual activity [27] 97% | inhibition [28] 8.63% | residual activity [29] 91% | residual activity [30] 100% | residual activity [31] 80% | residual activity [32] 98% | inhibition [33] -4.17% | residual activity [34] 100% | inhibition [35] -3% | residual activity [36] 86% | residual activity [37] 100% | residual activity [38] 93% | residual activity [39] 89% | residual activity [40] 100%
